“Also recorded” adds a separate entry of the source.
Tests used:
GABAB receptor [1] = molecular target: T1, GABAB receptor (Rattus norvegicus, UniProt Q9Z0U4); experiment: biochemical
GABAA receptor = experiment: [^3H]muscimol competition binding, rat brain synaptic membranes
Procedure: On the day of the assay, the membrane preparation was quickly thawed, suspended in 40 volumes of ice-cold 50 mM Tris-HCl buffer (pH 7.4) using an UltraTurrax homogenizer and centrifuged at 48,000 g for 10 min at 4° C. This washing step was repeated four times. The final pellet was resuspended in incubation buffer and the binding assay carried out as detailed below.

cortical astrocytes = experiment: [^3H]GABA uptake in cultured cortical astrocytes; type: cell-based, mouse
Procedure: Cortical astrocytes were cultured essentially as previously described (Hertz L, Juurlink B H J, Hertz E, Fosmark H and Schousboe A, Preparation of Primary Cultures of Mouse (Rat) Astrocytes, in A Dissection and Tissue Culture Manual of the Nervous System (Shahar A, de Vellis J, Vernadakis A and Haber B eds) pp 105-108, Alan R. Liss, Inc., New York, 1989). The neopallium was removed from new born NMRI mice (Taconic, Denmark) and passed through an 80 μm nylon sieve and cultured in modified Dulbecco's modified Eagle's medium with fetal calf serum. The calf serum was lowered from 20% to 10% over three weeks, and finally the astrocytes were allowed to differentiate using 0.25 mM dibutyryl cyclic AMP during the last week of growth.
(§1) Cortical neurons were cultured essentially as previously described by removing the neopallium of 15-day old NMRI embryos by dissection followed by mild trypsination (Hertz E, Yu A C H, Hertz L, Juurlink B H J and Schousboe A. Preparation of Primary Cultures of Mouse Cortical Neurons, in A Dissection and Tissue Culture Manual of the Nervous System (Shahar A, de Vellis J, Vernadakis A and Haber B eds) pp 183-186, Alan R. Liss, Inc., New York, 198). […] Radioactivity was measured using Microscint™ 20 scintillation fluid (PerkinElmer) and a Packard TopCount microplate scintillation counter.

hGAT-1 = molecular target: T2, hGAT-1 (Homo sapiens, UniProt P30531); experiment: [^3H]GABA uptake assay at human GABA transporters, tsA201 cells; type: cell-based; conditions: mammalian cells recombinantly expressing hGAT-1
T2 construct: expressed in transfected cells; host or cells: tsA201 cells (transient, PolyFect)
Procedure: (§2) tsA201 cells were cultured in GlutaMAX-I DMEM supplemented with 10% fetal bovine serum, penicillin (100 U/ml), and streptomycin (100 μg/ml) at 37° C. in a humidified atmosphere of 95% air and 5% CO2. […] Quantification was performed by using Microscint™ 20 scintillation fluid (Perkin Elmer) and a Packard TopCount microplate scintillation counter.

hBGT-1 = molecular target: T3, hBGT-1 (Homo sapiens, UniProt P48065); experiment: as above; type: cell-based; conditions: mammalian cells recombinantly expressing hBGT-1
T3 construct: expressed in transfected cells; host or cells: tsA201 cells (transient, PolyFect)
T3 sequence (P48065 1-614): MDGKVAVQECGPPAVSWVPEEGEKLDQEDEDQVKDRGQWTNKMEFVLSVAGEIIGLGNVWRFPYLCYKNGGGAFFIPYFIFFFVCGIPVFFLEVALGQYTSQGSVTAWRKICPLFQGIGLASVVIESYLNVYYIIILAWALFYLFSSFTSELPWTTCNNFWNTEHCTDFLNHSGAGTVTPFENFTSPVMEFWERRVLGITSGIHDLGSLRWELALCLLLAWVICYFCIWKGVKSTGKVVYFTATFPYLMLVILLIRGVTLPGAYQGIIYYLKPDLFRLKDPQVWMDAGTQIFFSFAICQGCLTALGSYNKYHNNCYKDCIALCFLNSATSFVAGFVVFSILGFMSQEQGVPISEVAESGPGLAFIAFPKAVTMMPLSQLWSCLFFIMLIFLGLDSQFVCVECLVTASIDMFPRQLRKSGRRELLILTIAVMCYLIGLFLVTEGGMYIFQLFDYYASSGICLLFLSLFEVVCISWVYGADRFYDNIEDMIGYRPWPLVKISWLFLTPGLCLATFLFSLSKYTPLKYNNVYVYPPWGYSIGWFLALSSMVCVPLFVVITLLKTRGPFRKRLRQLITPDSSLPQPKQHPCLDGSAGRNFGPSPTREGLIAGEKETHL
Procedure: as §2

hGAT-2 = molecular target: T4, hGAT-2 (Homo sapiens, UniProt Q9NSD5); experiment: as above; type: cell-based; conditions: mammalian cells recombinantly expressing hGAT-2
T4 construct: expressed in transfected cells; host or cells: tsA201 cells (transient, PolyFect)
T4 sequence (Q9NSD5 1-602): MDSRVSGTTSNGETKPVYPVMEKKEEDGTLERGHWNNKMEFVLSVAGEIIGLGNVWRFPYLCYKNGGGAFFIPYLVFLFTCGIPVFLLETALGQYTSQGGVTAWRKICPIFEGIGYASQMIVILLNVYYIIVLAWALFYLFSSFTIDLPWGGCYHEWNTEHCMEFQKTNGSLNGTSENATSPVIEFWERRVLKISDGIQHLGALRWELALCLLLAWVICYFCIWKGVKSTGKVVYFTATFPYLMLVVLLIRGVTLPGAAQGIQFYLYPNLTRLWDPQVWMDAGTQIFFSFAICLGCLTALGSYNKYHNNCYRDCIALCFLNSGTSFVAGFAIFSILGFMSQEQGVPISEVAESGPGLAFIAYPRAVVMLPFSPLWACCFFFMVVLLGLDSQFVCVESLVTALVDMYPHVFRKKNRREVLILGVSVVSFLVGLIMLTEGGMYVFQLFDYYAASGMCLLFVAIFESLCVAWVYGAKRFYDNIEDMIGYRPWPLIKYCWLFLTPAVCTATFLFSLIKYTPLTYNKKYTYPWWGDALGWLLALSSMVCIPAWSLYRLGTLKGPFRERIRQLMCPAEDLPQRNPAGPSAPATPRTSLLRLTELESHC
Procedure: as §2

hGAT-3 = molecular target: T5, hGAT-3 (Homo sapiens, UniProt P48066); experiment: as above; type: cell-based; conditions: mammalian cells recombinantly expressing hGAT-3
T5 construct: expressed in transfected cells; host or cells: tsA201 cells (transient, PolyFect)
T5 sequence (P48066 1-632): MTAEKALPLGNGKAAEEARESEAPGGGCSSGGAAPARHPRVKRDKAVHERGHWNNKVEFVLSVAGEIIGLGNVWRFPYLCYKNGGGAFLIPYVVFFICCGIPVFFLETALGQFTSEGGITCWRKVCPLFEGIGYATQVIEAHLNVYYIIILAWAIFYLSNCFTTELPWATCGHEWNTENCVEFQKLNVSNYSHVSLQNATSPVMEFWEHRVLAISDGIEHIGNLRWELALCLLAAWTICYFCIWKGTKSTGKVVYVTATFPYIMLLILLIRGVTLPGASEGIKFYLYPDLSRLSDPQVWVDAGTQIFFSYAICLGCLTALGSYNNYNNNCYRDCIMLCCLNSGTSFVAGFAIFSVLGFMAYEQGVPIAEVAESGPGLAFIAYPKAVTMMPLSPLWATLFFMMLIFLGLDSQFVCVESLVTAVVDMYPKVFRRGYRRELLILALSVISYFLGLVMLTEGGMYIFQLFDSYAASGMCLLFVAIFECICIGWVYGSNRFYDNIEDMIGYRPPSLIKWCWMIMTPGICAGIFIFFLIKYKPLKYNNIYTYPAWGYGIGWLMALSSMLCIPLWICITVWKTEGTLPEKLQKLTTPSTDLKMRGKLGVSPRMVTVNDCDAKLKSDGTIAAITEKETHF
Procedure: as §2

GABAB receptor [2] = molecular target: T1, GABAB receptor; conditions: 100 μM, rat brain cortical homogenate; hydrochloride salt
human ρ1 GABAC receptors = molecular target: T6, human ρ1 GABAC receptors (Homo sapiens, UniProt P24046); experiment: Activity at recombinant GABAC receptors expressed in oocytes; type: cell-based; conditions: 100 μM, hydrochloride salt
T6 construct: expressed in transfected cells; host or cells: Xenopus laevis oocytes

cortical neurons = experiment: [^3H]GABA uptake in cultured cortical neurons; type: cell-based, mouse
Procedure: as §1, with “[…]). The neurons were cultured in 10% fetal calf serum and, after 48 h, cytosine arabinoside was added to a final concentration of 20 μM to prevent glial proliferation. […] The stable cell lines are under the selection pressure of blasticidin-S at 5 μg/mL.” for “198).”

reuptake of GABA = experiment: GABA reuptake, general statement; type: cell-based
Procedure: as §2
as §1, with “[…]). The neurons were cultured in 10% fetal calf serum and, after 48 h, cytosine arabinoside was added to a final concentration of 20 μM to prevent glial proliferation. […] The stable cell lines are under the selection pressure of blasticidin-S at 5 μg/mL.” for “198).”

T1 sequence (Q9Z0U4 17-960 limits assumed): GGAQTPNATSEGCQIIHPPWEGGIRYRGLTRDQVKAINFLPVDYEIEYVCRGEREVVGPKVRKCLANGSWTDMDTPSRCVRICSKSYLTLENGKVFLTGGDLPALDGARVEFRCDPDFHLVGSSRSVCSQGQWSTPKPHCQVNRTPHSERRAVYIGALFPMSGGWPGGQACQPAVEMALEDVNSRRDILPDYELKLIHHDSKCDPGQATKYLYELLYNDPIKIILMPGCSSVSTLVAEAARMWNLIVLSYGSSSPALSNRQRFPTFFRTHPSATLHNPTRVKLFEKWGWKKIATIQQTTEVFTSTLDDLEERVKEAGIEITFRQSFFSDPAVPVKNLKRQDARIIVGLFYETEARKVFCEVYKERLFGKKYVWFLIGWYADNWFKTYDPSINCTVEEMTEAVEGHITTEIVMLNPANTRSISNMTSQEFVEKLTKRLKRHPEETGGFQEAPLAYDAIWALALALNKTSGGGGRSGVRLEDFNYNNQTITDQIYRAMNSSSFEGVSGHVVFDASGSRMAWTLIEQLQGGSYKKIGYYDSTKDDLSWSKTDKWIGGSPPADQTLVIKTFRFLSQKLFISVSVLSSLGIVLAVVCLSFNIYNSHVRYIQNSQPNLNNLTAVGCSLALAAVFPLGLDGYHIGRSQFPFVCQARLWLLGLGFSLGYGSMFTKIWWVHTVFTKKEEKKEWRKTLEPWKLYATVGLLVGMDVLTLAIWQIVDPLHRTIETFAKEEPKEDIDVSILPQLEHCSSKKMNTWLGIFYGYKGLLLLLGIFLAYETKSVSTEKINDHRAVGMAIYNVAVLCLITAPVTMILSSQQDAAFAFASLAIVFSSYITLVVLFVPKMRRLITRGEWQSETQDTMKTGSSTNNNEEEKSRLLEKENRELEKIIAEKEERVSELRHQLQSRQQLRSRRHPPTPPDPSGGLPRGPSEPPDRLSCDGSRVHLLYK
T1 sequence (O88871 41-940 partner): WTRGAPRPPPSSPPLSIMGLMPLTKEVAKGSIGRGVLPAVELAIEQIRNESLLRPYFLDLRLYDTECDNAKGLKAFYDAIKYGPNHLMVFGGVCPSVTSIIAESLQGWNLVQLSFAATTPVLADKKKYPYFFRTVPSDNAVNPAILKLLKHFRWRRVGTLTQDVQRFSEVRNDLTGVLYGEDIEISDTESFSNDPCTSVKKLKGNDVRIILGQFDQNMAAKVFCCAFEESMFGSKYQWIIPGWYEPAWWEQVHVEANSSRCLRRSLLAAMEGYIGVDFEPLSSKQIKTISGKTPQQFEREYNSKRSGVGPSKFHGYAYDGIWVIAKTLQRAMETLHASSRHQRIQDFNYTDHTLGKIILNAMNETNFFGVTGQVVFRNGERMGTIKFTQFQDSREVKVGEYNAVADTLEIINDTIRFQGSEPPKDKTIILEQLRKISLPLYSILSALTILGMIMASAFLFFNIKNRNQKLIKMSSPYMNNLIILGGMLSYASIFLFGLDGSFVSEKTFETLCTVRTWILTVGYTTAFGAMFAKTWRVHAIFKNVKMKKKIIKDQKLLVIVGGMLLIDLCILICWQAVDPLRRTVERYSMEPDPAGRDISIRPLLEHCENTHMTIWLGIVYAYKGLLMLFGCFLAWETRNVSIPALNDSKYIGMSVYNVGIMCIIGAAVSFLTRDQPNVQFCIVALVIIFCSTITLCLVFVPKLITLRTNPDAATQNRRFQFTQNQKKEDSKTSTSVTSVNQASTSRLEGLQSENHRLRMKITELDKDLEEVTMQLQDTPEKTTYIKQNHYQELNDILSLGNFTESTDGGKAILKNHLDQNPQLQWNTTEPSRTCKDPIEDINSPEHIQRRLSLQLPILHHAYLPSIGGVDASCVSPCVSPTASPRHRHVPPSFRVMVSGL
T2 sequence (P30531 whole entry): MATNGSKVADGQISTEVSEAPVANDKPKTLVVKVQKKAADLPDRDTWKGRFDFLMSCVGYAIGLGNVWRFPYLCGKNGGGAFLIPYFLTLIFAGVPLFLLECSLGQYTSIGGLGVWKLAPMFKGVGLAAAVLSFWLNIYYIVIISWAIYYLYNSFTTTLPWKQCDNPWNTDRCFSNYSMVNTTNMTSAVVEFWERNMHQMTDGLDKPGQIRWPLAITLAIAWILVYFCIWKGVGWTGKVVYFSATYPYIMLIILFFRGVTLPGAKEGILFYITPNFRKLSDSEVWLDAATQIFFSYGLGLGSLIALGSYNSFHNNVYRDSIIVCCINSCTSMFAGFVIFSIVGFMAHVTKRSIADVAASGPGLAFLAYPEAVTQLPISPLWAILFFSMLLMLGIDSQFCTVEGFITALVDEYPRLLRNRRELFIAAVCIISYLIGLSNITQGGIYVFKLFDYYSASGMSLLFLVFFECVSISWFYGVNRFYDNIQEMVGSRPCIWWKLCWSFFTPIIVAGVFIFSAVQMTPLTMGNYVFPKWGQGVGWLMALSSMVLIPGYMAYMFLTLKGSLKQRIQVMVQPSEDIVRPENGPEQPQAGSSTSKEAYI
T6 sequence (P24046 22-479): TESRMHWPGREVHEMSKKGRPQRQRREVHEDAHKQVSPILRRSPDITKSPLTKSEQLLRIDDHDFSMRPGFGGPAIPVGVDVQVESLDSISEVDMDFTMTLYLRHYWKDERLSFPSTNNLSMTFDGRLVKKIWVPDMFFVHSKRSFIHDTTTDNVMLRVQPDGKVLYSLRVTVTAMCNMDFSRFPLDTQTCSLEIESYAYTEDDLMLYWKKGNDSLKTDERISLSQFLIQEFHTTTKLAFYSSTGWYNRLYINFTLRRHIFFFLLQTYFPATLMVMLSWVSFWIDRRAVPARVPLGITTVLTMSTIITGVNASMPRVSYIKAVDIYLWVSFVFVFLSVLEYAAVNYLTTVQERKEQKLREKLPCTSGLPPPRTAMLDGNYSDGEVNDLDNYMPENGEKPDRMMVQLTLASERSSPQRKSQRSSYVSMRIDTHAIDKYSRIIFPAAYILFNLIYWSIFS

| Compound | IC50 (GABAB receptor [1]) [µM] | IC50 (GABAA receptor; rat brain synaptic membranes) [µM] | inhibition of [^3H]GABA uptake (cortical astrocytes) | inhibition of [^3H]GABA uptake (hGAT-1) | inhibition of [^3H]GABA uptake (hBGT-1) | inhibition of [^3H]GABA uptake (hGAT-2) | inhibition of [^3H]GABA uptake (hGAT-3) | inhibition of radioligand binding at GABAB receptors (GABAB receptor [2]) | agonist or antagonist effect at GABAC receptors (human ρ1 GABAC receptors) | inhibition of radioligand binding at GABAA receptors (GABAA receptor; 100 μM, rat brain cortical homogenate, hydrochloride salt) | inhibition of [^3H]GABA uptake (cortical neurons) | inhibition of the reuptake of GABA (reuptake of GABA) |
| --- | --- | --- | --- | --- | --- | --- | --- | --- | --- | --- | --- | --- |
| N[C@H]1C[C@@H](C(=O)O)CC1=C(F)F [(1S,3S)-3-amino-4-difluoromethylenyl-1-cyclopentanoic acid] | > 100 | > 100 |  |  |  |  |  |  |  |  |  |  |
| Cl.N[C@H]1C[C@@H](C(=O)O)CC1=C(F)F [(1S,3S)-3-amino-4-difluoromethylenyl-1-cyclopentanoic acid hydrochloride salt] |  |  | does not inhibit | does not inhibit | does not inhibit | does not inhibit | does not inhibit | no inhibition of binding was observed | no effect as an agonist or antagonist | no inhibition of binding was observed; also recorded: nor does it bind | does not inhibit | does not inhibit the reuptake of GABA |

Source: patent publication US9254274B2, “Method of treating Tourette'S disorder with GABA-aminotransferase inactivators” (CATALYST PHARMACEUTICAL PARTNERS, priority 2012, dated 2016)
